Experimental findings from patent publication US5073627A (Immunex Corporation, priority 1990, dated 1991) are described below.

The target in data set [1] is T1, receptors on KG-1 cells (GM-CSF/IL-3 receptors) (Homo sapiens, UniProt P26951+P32927).
T1 construct: endogenous in cells; host or cells: KG-1
T1 sequence (P26951 19-378): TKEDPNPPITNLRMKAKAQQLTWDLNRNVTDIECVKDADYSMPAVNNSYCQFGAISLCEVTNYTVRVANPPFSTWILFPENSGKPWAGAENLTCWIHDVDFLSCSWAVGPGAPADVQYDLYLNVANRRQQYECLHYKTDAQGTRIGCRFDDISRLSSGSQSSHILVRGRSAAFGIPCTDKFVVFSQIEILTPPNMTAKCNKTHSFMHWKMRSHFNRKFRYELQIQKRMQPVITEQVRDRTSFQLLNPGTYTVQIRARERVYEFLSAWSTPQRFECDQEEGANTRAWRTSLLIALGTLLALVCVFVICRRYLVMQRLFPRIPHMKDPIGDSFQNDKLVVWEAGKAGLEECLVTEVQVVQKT
T1 sequence (P32927 17-897): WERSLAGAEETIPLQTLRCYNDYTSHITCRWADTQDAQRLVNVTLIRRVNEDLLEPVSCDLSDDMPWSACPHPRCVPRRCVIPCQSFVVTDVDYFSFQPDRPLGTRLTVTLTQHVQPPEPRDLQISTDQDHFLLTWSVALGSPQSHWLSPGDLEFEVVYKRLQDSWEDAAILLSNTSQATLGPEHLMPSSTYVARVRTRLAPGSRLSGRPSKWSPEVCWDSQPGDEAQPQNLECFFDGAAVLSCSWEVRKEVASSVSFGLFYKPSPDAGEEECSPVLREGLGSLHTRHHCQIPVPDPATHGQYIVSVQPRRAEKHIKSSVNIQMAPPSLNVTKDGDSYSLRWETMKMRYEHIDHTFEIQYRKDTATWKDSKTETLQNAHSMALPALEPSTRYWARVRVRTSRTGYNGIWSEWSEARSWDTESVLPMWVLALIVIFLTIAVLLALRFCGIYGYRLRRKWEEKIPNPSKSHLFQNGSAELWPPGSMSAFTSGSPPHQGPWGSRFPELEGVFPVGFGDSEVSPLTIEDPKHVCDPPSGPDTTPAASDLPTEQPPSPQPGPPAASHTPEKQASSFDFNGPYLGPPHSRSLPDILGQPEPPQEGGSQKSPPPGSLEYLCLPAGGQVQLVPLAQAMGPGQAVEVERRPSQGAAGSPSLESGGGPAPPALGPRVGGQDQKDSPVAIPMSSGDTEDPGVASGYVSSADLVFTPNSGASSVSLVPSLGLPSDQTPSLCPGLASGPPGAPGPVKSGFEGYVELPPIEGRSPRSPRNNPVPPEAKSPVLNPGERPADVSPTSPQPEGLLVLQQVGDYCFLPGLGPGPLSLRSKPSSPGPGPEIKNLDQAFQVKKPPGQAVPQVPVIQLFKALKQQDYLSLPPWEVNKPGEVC
In words: Inhibition of 125I-IL-3 binding to KG-1 cells. Conditions: for KI value on KG-1 cells relative to JM-1 cells: Table F data. How it is done:
(§1) Briefly, 2-10 μg of recombinant protein in 50 μl 0.2M sodium phosphate, pH 7.2, was combined with 50 μl enzymobead reagent, 2 mCi of sodium iodide in 20 μl of 0.05M sodium phosphate pH 7 and 10 μl of 2.5% β-D-glucose. After 10 min at 25° C., sodium azide (10 μl of 50 mM) and sodium metabisulfite (10 μl of 5 mg/ml) were added sequentially and incubation continued for 5 minutes at 25° C.
(§2) B. Binding Assays. Binding assays were performed using JM-1, KG-1, HL-60 and AML-193 cells.

Data set [2] relates to AML-193 cells. Put plainly: Thymidine incorporation assay, proliferation of AML-193 cells. Conditions: for Specific Activity: one unit = amount of growth factor for half-maximal thymidine incorporation, AML-193 cells. In kind it is cell-based, human. How it is done: The cells were split twice weekly and were seeded into fresh medium at a density of 300,000/ml.
These samples were then serially diluted by 3-fold through the additional 11 wells of the microtitre plate. […] Tritiated thymidine ([…]) was added to each well for an additional 6 hours of incubation and the samples were harvested with an automated sample harvester and counted by liquid scintillation. One unit of activity is defined as the amount of growth factor required to stimulate half-maximal thymidine incorporation.

In data set [3] the target is T2, receptors on AML-193 cells (GM-CSF/IL-3 receptors) (Homo sapiens, UniProt P26951+P32927).
T2 construct: endogenous in cells; host or cells: AML-193
T2 sequence (P26951 19-378): T1 sequence (P26951 19-378)
T2 sequence (P32927 17-897): T1 sequence (P32927 17-897)
Put plainly: Inhibition of 125I-IL-3 binding to AML-193 cells. Conditions: normalized data, JM-1 as standard. As to the method: as §1, §2

The subject of data set [4] is unfractionated human bone marrow. In words: Human bone marrow colony formation (CFU-GEMM, CFU-GM, BFU-E). Conditions: for Colonies (Mean ± S.D.) CFU-GM: agar. Type of data set: cell-based.
Method: Non-adherent, low density, T cell deplated cultures of human bone marrow were plated in methylcellulose (BFU-E, CFU-GEMM, 40,000 cells per plate) or agar (CFU-GM; 40,000 cells per culture) as described by Lu et al., Blood 61:250 (1983). Methylcellulose cultures contained 1 unit per plate erythropoietin and accounts for the background of 48±2 BFU-E in the absence of cytokine. Cultures were incubated in a 5% O2, 5% CO2, 90% N2 atmosphere for 14 days and counted with an inverted microscope.
Setting [5] is: Table D, 156 pg/ml (GM-CSF + IL-3: 156 ± 156 [sic]), 14 days.
The mark [6] stands for this setting: Table D, 312 pg/ml (GM-CSF + IL-3: 312 + 312), 14 days.
Setting [7] is: Table D, 625 pg/ml (GM-CSF + IL-3: 625 + 625), 14 days.
[8] abbreviates: Table D, 625 pg/ml (GM-CSF + IL-3: 625 + 625), with erythropoietin, background 48 ± 2.
Where [9] appears, read: Table D, 1250 pg/ml (GM-CSF + IL-3: 1250 + 1250), 14 days.
Where [10] appears, read: Table D, 1250 pg/ml (GM-CSF + IL-3: 1250 + 1250), with erythropoietin, background 48 ± 2.
Where [11] appears, read: Table D, 2500 pg/ml (GM-CSF + IL-3: 2500 + 2500), 14 days.
The mark [12] stands for this setting: Table D, 2500 pg/ml (GM-CSF + IL-3: 2500 + 2500), with erythropoietin, background 48 ± 2.
[13] abbreviates: Table D, 5000 pg/ml (GM-CSF + IL-3: 5000 + 5000), 14 days.
Where [14] appears, read: Table D, 5000 pg/ml (GM-CSF + IL-3: 5000 + 5000), with erythropoietin, background 48 ± 2.

As to “huIL-3[Pro^8 Asp^15 Asp^70 ]/huGM-CSF[Leu^23 Asp^27 Glu^39 ] [IL-3/GM-CSF]”, in data set [1], the “KI value on KG-1 cells relative to JM-1 cells” value is 10-20 fold.
Consider “huGM-CSF[Leu^23 Asp^27 Glu^39 ]/Gly4 SerGly5 Ser/huIL-3[Pro^8 Asp^15 Asp^70 ] [GM-CSF/IL-3]”, for which the “Specific activity relative to IL-3 or GM-CSF alone or GM-CSF plus IL-3 combined” value in data set [2] (AML-193 thymidine incorporation) was “approximately 10 fold”. Further, the “Specific Activity” value in data set [2] was 1.81 × 10^6 units/mg. For the same substance, the “KI value on KG-1 cells relative to JM-1 cells” value in data set [1] was 10-20 fold. Further, in data set [1] (normalized data, JM-1 as standard), the “Binding affinity to KG-1 cells relative to JM-1 cells” value came out at 41.0 fold. Moreover, the “Binding affinity to AML-193 cells relative to JM-1 cells” value in data set [3] is recorded as 11.1 fold. The “BFU-E, CFU-GM and CFU-GEMM colony formation relative to IL-3 or GM-CSF alone, or IL-3 and GM-CSF combined” value in data set [4] (FIG. 3A-3D) is on record as “enhances”. Further, the “Colonies (Mean ± S.D.) CFU-GEMM” value in data set [4] (Table D, 78 pg/ml, 14 days) is 0 colonies; in data set [4] (setting [5]), 1.0 ± 0.4 colonies; in data set [4] (setting [6]), 2.5 ± 0.7 colonies; in data set [4] (setting [7]), 4.3 ± 0.5 colonies; in data set [4] (setting [9]), 6.8 ± 0.5 colonies; in data set [4] (setting [11]) it was 10.3 ± 0.9 colonies. Further, the “Colonies (Mean ± S.D.) CFU-GEMM” value in data set [4] (setting [13]) is recorded as 10.3 ± 1 colonies; in data set [4] (Table E, 78 pg/ml, media control 2 ± 0), 2.0 ± 0 colonies; in data set [4] (Table E, 156 pg/ml, media control 2 ± 0), 2.0 ± 1 colonies; in data set [4] (Table E, 312 pg/ml, media control 2 ± 0), 5.5 ± 0.5 colonies; in data set [4] (Table E, 625 pg/ml (GM-CSF + IL-3: 625 + 625), media control 2 ± 0), 6.0 ± 1 colonies; in data set [4] (Table E, 1250 pg/ml (GM-CSF + IL-3: 1250 + 1250), media control 2 ± 0), 9.0 ± 0 colonies. Also, the “Colonies (Mean ± S.D.) CFU-GEMM” value in data set [4] (Table E, 2500 pg/ml (GM-CSF + IL-3: 2500 + 2500), media control 2 ± 0) turned out to be 10.0 ± 1 colonies. Further, the “Colonies (Mean ± S.D.) CFU-GM” value is on record as 16 ± 2 colonies in data set [4] (Table D, 78 pg/ml, 14 days); 24 ± 3 colonies in data set [4] (setting [5]); 35 ± 2 colonies in data set [4] (setting [6]); 52 ± 6 colonies in data set [4] (setting [7]); 59 ± 2 colonies in data set [4] (setting [9]); 74 ± 1 colonies in data set [4] (setting [11]). Besides, the “Colonies (Mean ± S.D.) CFU-GM” value came to 97 ± 2 colonies in data set [4] (setting [13]); 2 ± 0.3 colonies in data set [4] (Table E, 78 pg/ml); 5 ± 1 colonies in data set [4] (Table E, 156 pg/ml (GM-CSF + IL-3: 156 + 156)); 8 ± 1 colonies in data set [4] (Table E, 312 pg/ml (GM-CSF + IL-3: 312 + 312)); 15 ± 2 colonies in data set [4] (Table E, 625 pg/ml (GM-CSF + IL-3: 625 + 625)); 23 ± 2 colonies in data set [4] (Table E, 1250 pg/ml (GM-CSF + IL-3: 1250 + 1250)). Besides, the “Colonies (Mean ± S.D.) CFU-GM” value in data set [4] (Table E, 2500 pg/ml (GM-CSF + IL-3: 2500 + 2500)) is recorded as 45 ± 5 colonies; in data set [4] (Table E, 5000 pg/ml (GM-CSF + IL-3: 5000 + 5000)), 43 ± 5 colonies. For the same substance, the “Colonies (Mean ± S.D.) BFU-E” value in data set [4] (Table D, 78 pg/ml, with erythropoietin, background 48 ± 2) was found to be 50 ± 3 colonies; in data set [4] (Table D, 156 pg/ml (GM-CSF + IL-3: 156 ± 156 [sic]), with erythropoietin, background 48 ± 2), 49 ± 6 colonies; in data set [4] (Table D, 312 pg/ml (GM-CSF + IL-3: 312 + 312), with erythropoietin, background 48 ± 2), 70 ± 4 colonies; in data set [4] (setting [8]), 83 ± 5 colonies; in data set [4] (setting [10]) it was 125 ± 8 colonies; in data set [4] (setting [12]) it was 119 ± 5 colonies. Further, the “Colonies (Mean ± S.D.) BFU-E” value in data set [4] (setting [14]) is 107 ± 5 colonies; in data set [4] (Table E, 78 pg/ml, media control 44 ± 4) it was 44 ± 1 colonies; in data set [4] (Table E, 156 pg/ml, media control 44 ± 4), 47 ± 3 colonies; in data set [4] (Table E, 312 pg/ml, media control 44 ± 4) it was 71 ± 1 colonies; in data set [4] (Table E, 625 pg/ml (GM-CSF + IL-3: 625 + 625), media control 44 ± 4), 97 ± 2 colonies; in data set [4] (Table E, 1250 pg/ml (GM-CSF + IL-3: 1250 + 1250), media control 44 ± 4) it was 127 ± 7 colonies. For the same substance, the “Colonies (Mean ± S.D.) BFU-E” value in data set [4] (Table E, 2500 pg/ml (GM-CSF + IL-3: 2500 + 2500), media control 44 ± 4) stood at 125 ± 10 colonies. Moreover, the “Potency in enhancing proliferation of unfractionated human bone marrow cells” value in data set [4] (summary of Tables D and E) is “equivalent in potentcy to a mixture of GM-CSF and IL-3”.
Consider “GM-CSF: recombinant human granulocyte-macrophage colony-stimulating factor expressed in yeast, comparator”, for which the “Specific Activity” value in data set [2] is reported as 9.74 × 10^4 units/mg. The “Colonies (Mean ± S.D.) CFU-GEMM” value stood at 0 colonies in data set [4] (setting [6]); 0.3 ± 0.3 colonies in data set [4] (setting [7]); 1.5 ± 0.3 colonies in data set [4] (setting [9]); 3.5 ± 0.7 colonies in data set [4] (setting [11]); 6.8 ± 0.6 colonies in data set [4] (setting [13]). The “Colonies (Mean ± S.D.) CFU-GM” value in data set [4] (setting [6]) is 16 ± 1 colonies; in data set [4] (setting [7]) it was 21 ± 2 colonies; in data set [4] (setting [9]) it was 33 ± 2 colonies; in data set [4] (setting [11]), 42 ± 2 colonies; in data set [4] (setting [13]), 42 ± 4 colonies. The “Colonies (Mean ± S.D.) BFU-E” value in data set [4] (setting [8]) is recorded as 46 ± 3 colonies; in data set [4] (setting [10]), 47 ± 4 colonies; in data set [4] (setting [12]), 61 ± 1 colonies; in data set [4] (setting [14]), 63 ± 3 colonies.
